Columns and labels:
[1] = test system: Muscle bind like protein 1 (MBNL1); assay: MBNL1 quantification in human skeletal muscle cells by TR-FRET (Examples 7, 19); assay type: cell-based; conditions: hSkMc, 0.5 mg/mL, as Example 7, versus basal control
Protocol: MBNL1 induction by the peptides of the invention is evaluated by a Time resolved fluorescence resonance energy transfer (TR-FRET) assay. The aim of this study is to investigate the capacity of peptide candidates to increase MBNL1 in human skeletal muscle cells (hSkMc).
(§1) hSkMc (Innoprot) are seeded in 12-well plates at a density of 1.5×10^4 cells/well in Skeletal Muscle Cell Growth Medium (Promocell). After 72 hours incubation, medium is removed and replaced with Skeletal Muscle Cell Differentiation Medium (Promocell). 48 hours after beginning cell differentiation, fresh differentiation medium with 0.5 mg/ml of test items is added. Treatment is continued for 48 hours and non-treated cells are used as basal control. After 48 hours of treatment, cell medium is removed and added cell lysis buffer to wells. Immediately, plates are kept at −80° C. in order to improve protein extraction during the defrosting process. After 72 hours, cells are lysated by shaking the plates in an orbital rotor at room temperature for 45 minutes. Next, cell lysates are collected and assayed to quantify the level of MBNL1 protein and total protein concentration.
(§2) MBNL1 protein levels measurement is performed with Human MBNL1 Assay Kit (Cisbio) according to the manufacturer's protocol. Briefly, the kit is used to perform a TR-FRET for MBNL1 quantification. The protein is detected with the antibodies provided in the kit and quantified by a fluorescence measurement. The quantification is carried out by using a microplate reader (ClarioStar, BMG) set to 665 nm and 620 nm.
(§3) Total protein concentration of cell lysate is determined by using Pierce BCA Protein Assay Kit™ (Thermo Scientific) according to manufacturer's protocol. In brief, after adding Working Reagent to the samples and the standards, the samples are incubated. Afterwards, color change is measured with an absorbance microplate reader (Clariostar™, BMG) at 562 nm. The total protein amount is used to normalize the level of MBNL1 protein concentration obtained by the TR-FRET test in the samples.
Different peptides of the invention are tested as disclosed in Example 7 at 0.5 mg/mL.

[2] = test system: Muscle bind like protein 1 (MBNL1); assay: MBNL1 quantification by TR-FRET in hSkMc from TEBU-BIO (Example 20); assay type: cell-based, human; conditions: 0.5 mg/ml, versus basal control
Protocol: as §1, §2, §3
The assay is performed as disclosed in Example 7 except that hSkMc from TEBU-BIO (Barcelona, Spain) are used. Different peptides of the invention are tested at a concentration of 0.5 mg/ml.

Ac-Ala-Asp-Val-Tyr-Lys-NH2 (Ac-ADVYK-NH2) [PEP14]
% MBNL1 [1]: 145.0%

Ac-Ala-Leu-Lys-Pro-Asn-Thr-OH (Ac-ALKPNT-OH) [PEP27]
% MBNL1 [2]: 126.1%

Ac-Asn-Val-Tyr-Lys-NH2 (Ac-NVYK-NH2) [PEP11]
% MBNL1 [1]: 145.2%

Ac-Asp-Ile-Tyr-Lys-NH2 (Ac-DIYK-NH2) [PEP8]
% MBNL1 [1]: 190.4%

Ac-Asp-Leu-Tyr-Lys-NH2 (Ac-DLYK-NH2) [PEP12]
% MBNL1 [1]: 154.4%

Ac-Asp-Val-Phe-Lys-NH2 (Ac-DVFK-NH2) [PEP9]
% MBNL1 [1]: 134.2%

Ac-Asp-Val-Tyr-Arg-NH2 (Ac-DVYR-NH2) [PEP10]
% MBNL1 [1]: 158.3%

Ac-Asp-Val-Tyr-Lys-Ala-NH2 (Ac-DVYKA-NH2) [PEP15]
% MBNL1 [1]: 145.2%

Ac-Asp-Val-Tyr-Lys-OH (Ac-DVYK-OH) [PEP4]
% MBNL1 [1]: 378.5%

Ac-Glu-Ile-Phe-Arg-NH2 (Ac-EIFR-NH2) [PEP24]
% MBNL1 [1]: 117.5%

Ac-Glu-Ile-Tyr-Arg-NH2 (Ac-EIYR-NH2) [PEP23]
% MBNL1 [1]: 181.4%

Ac-Glu-Ile-Tyr-Lys-NH2 (Ac-EIYK-NH2) [PEP20]
% MBNL1 [1]: 214.2%

Ac-Glu-Val-Tyr-Lys-NH2 (Ac-EVYK-NH2) [PEP7]
% MBNL1 [1]: 141.5%

H-Ala-Ile-Arg-Pro-Asn-Thr-NH2 (H-AIRPNT-NH2) [PEP44]
% MBNL1 [2]: 240.6%

H-Ala-Leu-Arg-Pro-Asn-Thr-NH2 (H-ALRPNT-NH2) [PEP30]
% MBNL1 [2]: 181.3%

H-Ala-Leu-Lys-Pro-Asn-NH2 (H-ALKPN-NH2) [PEP41]
% MBNL1 [2]: 138.4%

H-Ala-Leu-Lys-Pro-Gln-Thr-NH2 (H-ALKPQT-NH2) [PEP50]
% MBNL1 [2]: 119.4%

H-Ala-Leu-Lys-Val-Asn-Thr-NH2 (H-ALKVNT-NH2) [PEP31]
% MBNL1 [2]: 120.0%

H-Asp-Val-Tyr-Lys-NH2 (H-DVYK-NH2) [PEP5]
% MBNL1 [1]: 261.4%

H-Gly-Ile-Lys-Pro-Asn-Thr-NH2 (H-GIKPNT-NH2) [PEP42]
% MBNL1 [2]: 114.2%

H-Gly-Val-Arg-Pro-Asn-Thr-NH2 (H-GVRPNT-NH2) [PEP46]
% MBNL1 [2]: 182.1%

H-Leu-Lys-Pro-Asn-Thr-NH2 (H-LKPNT-NH2) [PEP40]
% MBNL1 [2]: 117.3%

Palm-Asp-Val-Tyr-Lys-NH2 (DVYK; HELM PEPTIDE1{[CCCCCCCCCCCCCCCC(=O)[*:2]].D.V.Y.K.[am]}$$$$V2.0; SMILES CCCCCCCCCCCCCCCC(=O)N[C@@H](CC(=O)O)C(=O)N[C@H](C(=O)N[C@@H](Cc1ccc(O)cc1)C(=O)N[C@@H](CCCCN)C(N)=O)C(C)C) [PEP3]
% MBNL1 [1]: 127.7%

Palm-Glu-Val-Tyr-Lys-NH2 (EVYK; HELM PEPTIDE1{[CCCCCCCCCCCCCCCC(=O)[*:2]].E.V.Y.K.[am]}$$$$V2.0; SMILES CCCCCCCCCCCCCCCC(=O)N[C@@H](CCC(=O)O)C(=O)N[C@H](C(=O)N[C@@H](Cc1ccc(O)cc1)C(=O)N[C@@H](CCCCN)C(N)=O)C(C)C) [PEP13]
% MBNL1 [1]: 147.2%

Reference: patent US12419824B2, “Compounds useful for the treatment and/or care of the skin, hair, nails and/or mucous membranes” (Lubrizol Advanced Materials, Inc., priority 2019, dated 2025)
